In US11944614B2, “Imidazo[4,5-c]pyridine compounds as LSD-1 inhibitors” (THE REGENTS OF THE UNIVERSITY OF MICHIGAN, priority 2018, dated 2024):

Target: Human recombinant LSD1 protein (Homo sapiens (Human), UniProt O60341)
Experiment: LSD1 enzymatic activity, AlphaLISA demethylation assay
Format: biochemical
Details: 4 nM LSD1, 80 nM Biotin-H3K4Me peptide substrate, 1% DMSO, 60 minutes reaction
Experimental: Human recombinant LSD1 protein expressed in E. coli cells was purchased from Active Motif (Carlsbad, Calif.). Biotin-labeled Histone H3K4Me peptide (residues 1-21 with Lys 4 monomethylated) substrate was purchased from Anaspec (Fremont, Calif.). Enzymatic activity was assessed using the AlphaLISA technology from Perkin Elmer Life Sciences (Waltham, Mass.). 2.5 μL of compound solution and 5 μL of LSD1 solutions in the assay buffer (50 mM Tris, pH 9.0, 50 mM NaCl with 0.01% Tween20 and 1 mM DTT added right before the assay) were added into a white low volume 384 well microtiter plate. This mixture solution was incubated for 15 minutes with gentle shaking at room temperature. Demethylation reaction was initiated by adding 2.5 μL of Biotin-H3K4Me peptide substrate solution in the assay buffer. Final concentrations of LSD1, Biotin-H3K4Me peptide substrate, and DMSO were 4 nM, 80 nM, and 1%, respectively. The reaction was allowed to proceed for 60 minutes in dark with gentle shaking at room temperature, after which 5 μL of Anti-H3K4 AlphaLISA acceptor beads in detection buffer from the manufacturer was added into the reaction mixture followed by incubation for 60 minutes. 10 μL of Streptavidin labeled AlphaLISA donor beads in detection buffer was added into the mixture followed by 30-minute incubation. Final acceptor and donor beads concentrations were both at 10 μg/mL. Plates were read on a BMG CLARIOStar multimode plate reader from BMG Labtech (Ortenberg, Germany) with an excitation wavelength of 680 nm and emission wavelength of 615 nm. IC50 values of inhibitors were obtained by fitting the fluorescence intensity vs inhibitor concentrations in a sigmoidal dose-response curve (variable slope) with a non-linear regression using Prism 7 (La Jolla, Calif.).

Compound	IC50
CN1CCC(Cn2cnc3c(-c4ccc(C#N)c(F)c4)c(-c4ccc5c(ccn5C)c4)ncc32)CC1 [compound 2, 2-fluoro-4-(6-(1-methyl-1H-indol-5-yl)-3-((1-methylpiperidin-4-yl)methyl)-3H-imidazo[4,5-c]pyridin-7-yl)benzonitrile]	237 nM
CN1CCC(Cn2cnc3c(-c4ccc(C#N)c(F)c4)c(-c4ccc5c(c4)CC(=O)N5C)ncc32)CC1 [compound 3, 2-fluoro-4-(6-(1-methyl-2-oxoindolin-5-yl)-3-((1-methylpiperidin-4-yl)methyl)-3H-imidazo[4,5-c]pyridin-7-yl)benzonitrile]	220 nM
CCn1ncc2cc(-c3ncc4c(ncn4CC4CCN(C)CC4)c3-c3ccc(C#N)c(F)c3)ccc21 [compound 4, 4-(6-(1-ethyl-1H-indazol-5-yl)-3-((1-methylpiperidin-4-yl)methyl)-3H-imidazo[4,5-c]pyridin-7-yl)-2-fluorobenzonitrile]	372 nM
Cc1nc2cc(-c3ncc4c(ncn4CC4CCN(C)CC4)c3-c3ccc(C#N)c(F)c3)ccc2s1 [compound 5, 2-fluoro-4-(6-(2-methylbenzo[d]thiazol-5-yl)-3-((1-methylpiperidin-4-yl)methyl)-3H-imidazo[4,5-c]pyridin-7-yl)benzonitrile]	928 nM
CN1CCC(Cn2cnc3c(-c4ccc(C#N)cc4)c(-c4ccc5c(cnn5C)c4)ncc32)CC1 [compound 6, 4-(6-(1-methyl-1H-indazol-5-yl)-3-((1-methylpiperidin-4-yl)methyl)-3H-imidazo[4,5-c]pyridin-7-yl)benzonitrile]	66.3 nM
CN1CCC(Cn2cnc3c(-c4ccc(C#N)cc4)c(-c4ccc5c(ccn5C)c4)ncc32)CC1 [compound 7, 4-(6-(1-methyl-1H-indol-5-yl)-3-((1-methylpiperidin-4-yl)methyl)-3H-imidazo[4,5-c]pyridin-7-yl)benzonitrile]	68 nM
CN1CCC(Cn2cnc3c(-c4ccc(C#N)cc4)c(-c4ccc(C#N)cc4)ncc32)CC1 [compound 9, 4,4′-(3-((1-methylpiperidin-4-yl)methyl)-3H-imidazo[4,5-c]pyridine-6,7-diyl)dibenzonitrile]	> 1000 nM
CCn1ncc2cc(-c3ncc4c(ncn4CC4CCN(C)CC4)c3-c3ccc(C#N)cc3)ccc21 [compound 11, 4-(6-(1-ethyl-1H-indazol-5-yl)-3-((1-methylpiperidin-4-yl)methyl)-3H-imidazo[4,5-c]pyridin-7-yl)benzonitrile]	116 nM
CN1CCC(Cn2cnc3c(-c4ccc(C#N)c(F)c4)c(-c4ccc5nn(C)cc5c4)ncc32)CC1 [compound 12, 2-fluoro-4-(6-(2-methyl-2H-indazol-5-yl)-3-((1-methylpiperidin-4-yl)methyl)-3H-imidazo[4,5-c]pyridin-7-yl)benzonitrile]	97.6 nM
CN1CCC(Cn2cnc3c(-c4ccc(C#N)cc4)c(-c4ccc5nn(C)cc5c4)ncc32)CC1 [compound 13, 4-(6-(2-methyl-2H-indazol-5-yl)-3-((1-methylpiperidin-4-yl)methyl)-3H-imidazo[4,5-c]pyridin-7-yl)benzonitrile]	115 nM
Cn1ccc2cc(-c3ncc4c(ncn4C[C@H]4CCNC4)c3-c3ccc(C#N)c(F)c3)cnc21 [compound 27, (S)-2-fluoro-4-(6-(1-methyl-1H-pyrrolo[2,3-b]pyridin-5-yl)-3-(pyrrolidin-3-ylmethyl)-3H-imidazo[4,5-c]pyridin-7-yl)benzonitrile]	53.3 nM

The next lines start with the values.

IC50	Compound
40.1 nM	CN1CCC(Cn2cnc3c(-c4ccc(C#N)c(F)c4)c(-c4ccc5c(cnn5C)c4)ncc32)CC1 [Cpd. No. 1, 2-fluoro-4-(6-(1-methyl-1H-indazol-5-yl)-3-((1-methylpiperidin-4-yl)methyl)-3H-imidazo[4,5-c]pyridin-7-yl)benzonitrile]
11.8 nM	Cn1ncc2cc(-c3ncc4c(ncn4CC4CCNCC4)c3-c3ccc(C#N)c(F)c3)ccc21 [Cpd. No. 19, 2-fluoro-4-(6-(1-methyl-1H-indazol-5-yl)-3-(piperidin-4-ylmethyl)-3H-imidazo[4,5-c]pyridin-7-yl)benzonitrile]
16.2 nM	CN1CCC(Cn2cnc3c(-c4ccc(C#N)c(F)c4)c(-c4ccc5c(c4)OCCN5C)ncc32)CC1 [compound 8, 2-fluoro-4-(6-(4-methyl-3,4-dihydro-2H-benzo[b][1,4]oxazin-7-yl)-3-((1-methylpiperidin-4-yl)methyl)-3H-imidazo[4,5-c]pyridin-7-yl)benzonitrile]
53.1 nM	CN1CCC(Cn2cnc3c(-c4ccc(C#N)cc4)c(-c4ccc5c(c4)OCCN5C)ncc32)CC1 [compound 10, 4-(6-(4-methyl-3,4-dihydro-2H-benzo[b][1,4]oxazin-7-yl)-3-((1-methylpiperidin-4-yl)methyl)-3H-imidazo[4,5-c]pyridin-7-yl)benzonitrile]
15.7 nM	CN1CCC(Cn2cnc3c(-c4ccc(C#N)cc4)c(-c4ccc5c(c4)OCO5)ncc32)CC1 [compound 14, 4-(6-(benzo[d][1,3]dioxol-5-yl)-3-((1-methylpiperidin-4-yl)methyl)-3H-imidazo[4,5-c]pyridin-7-yl)benzonitrile]
27.8 nM	CN1CCC(Cn2cnc3c(-c4ccc(C#N)c(F)c4)c(-c4ccc5c(c4)OCO5)ncc32)CC1 [compound 15, 4-(6-(benzo[d][1,3]dioxol-5-yl)-3-((1-methylpiperidin-4-yl)methyl)-3H-imidazo[4,5-c]pyridin-7-yl)-2-fluorobenzonitrile]
28 nM	CN1CC[C@H](Cn2cnc3c(-c4ccc(C#N)c(F)c4)c(-c4ccc5c(cnn5C)c4)ncc32)C1 [compound 16, (S)-2-fluoro-4-(6-(1-methyl-1H-indazol-5-yl)-3-((1-methylpyrrolidin-3-yl)methyl)-3H-imidazo[4,5-c]pyridin-7-yl)benzonitrile]
12.1 nM	CN1CCOc2cc(-c3ncc4c(ncn4C[C@H]4CCNC4)c3-c3ccc(C#N)c(F)c3)ccc21 [compound 17, (S)-2-fluoro-4-(6-(4-methyl-3,4-dihydro-2H-benzo[b][1,4]oxazin-7-yl)-3-(pyrrolidin-3-ylmethyl)-3H-imidazo[4,5-c]pyridin-7-yl)benzonitrile]
12 nM	CN1CC[C@H](Cn2cnc3c(-c4ccc(C#N)c(F)c4)c(-c4ccc5c(c4)OCCN5C)ncc32)C1 [compound 18, (S)-2-fluoro-4-(6-(4-methyl-3,4-dihydro-2H-benzo[b][1,4]oxazin-7-yl)-3-((1-methylpyrrolidin-3-yl)methyl)-3H-imidazo[4,5-c]pyridin-7-yl)benzonitrile]
13.7 nM	Cn1ncc2cc(-c3ncc4c(ncn4CC4CCNCC4)c3-c3ccc(C#N)cc3)ccc21 [compound 20, 4-(6-(1-methyl-1H-indazol-5-yl)-3-(piperidin-4-ylmethyl)-3H-imidazo[4,5-c]pyridin-7-yl)benzonitrile]
17.3 nM	Cn1ncc2cc(-c3ncc4c(ncn4CC4CCCNCC4)c3-c3ccc(C#N)c(F)c3)ccc21 (stereo not shown) [compound 21, 4-(3-(azepan-4-ylmethyl)-6-(1-methyl-1H-indazol-5-yl)-3H-imidazo[4,5-c]pyridin-7-yl)-2-fluorobenzonitrile]
16.2 nM	Cn1ncc2cc(-c3ncc4c(ncn4CC4CCCNCC4)c3-c3ccc(C#N)cc3)ccc21 (stereo not shown) [compound 22, 4-(3-(azepan-4-ylmethyl)-6-(1-methyl-1H-indazol-5-yl)-3H-imidazo[4,5-c]pyridin-7-yl)benzonitrile]
13 nM	CN1CCOc2cc(-c3ncc4c(ncn4CC4CCCNCC4)c3-c3ccc(C#N)c(F)c3)ccc21 (stereo not shown) [compound 23, 4-(3-(azepan-4-ylmethyl)-6-(4-methyl-3,4-dihydro-2H-benzo[b][1,4]oxazin-7-yl)-3H-imidazo[4,5-c]pyridin-7-yl)-2-fluorobenzonitrile]
11 nM	CN1CCOc2cc(-c3ncc4c(ncn4CC4CCCNCC4)c3-c3ccc(C#N)cc3)ccc21 (stereo not shown) [compound 24, 4-(3-(azepan-4-ylmethyl)-6-(4-methyl-3,4-dihydro-2H-benzo[b][1,4]oxazin-7-yl)-3H-imidazo[4,5-c]pyridin-7-yl)benzonitrile]
8.01 nM	CN1CCOc2cc(-c3ncc4c(ncn4CC4CCNCC4)c3-c3ccc(C#N)c(F)c3)ccc21 [compound 25, 2-fluoro-4-(6-(4-methyl-3,4-dihydro-2H-benzo[b][1,4]oxazin-7-yl)-3-(piperidin-4-ylmethyl)-3H-imidazo[4,5-c]pyridin-7-yl)benzonitrile]
14.7 nM	CN1CCOc2cc(-c3ncc4c(ncn4CC4CCNCC4)c3-c3ccc(C#N)cc3)ccc21 [compound 26, 4-(6-(4-methyl-3,4-dihydro-2H-benzo[b][1,4]oxazin-7-yl)-3-(piperidin-4-ylmethyl)-3H-imidazo[4,5-c]pyridin-7-yl)benzonitrile]
9.57 nM	N#Cc1ccc(-c2c(-c3ccc4c(c3)OCCO4)ncc3c2ncn3C[C@H]2CCNC2)cc1F [compound 28, (S)-4-(6-(2,3-dihydrobenzo[b][1,4]dioxin-6-yl)-3-(pyrrolidin-3-ylmethyl)-3H-imidazo[4,5-c]pyridin-7-yl)-2-fluorobenzonitrile]
